Data reported in patent US6713486B1, “Antiviral 2,4-pyrimidinedione derivatives and process for the preparation thereof” (Korea Research Institute of Chemical Technology, priority 1999, dated 2004).
Like-named read-outs stand apart in the source and are kept apart here.

Columns and labels:
HIV-1 = conditions: for ED50: Effective concentration for the inhibition of the proliferation of HIV-1 by 50%: HIV-1 infected MT-4 cells, MTT; for S.I. Selectivity index (CD50/ED50): CD50/ED50, MT-4 cells
Description: First, MT-4 cells were suspended in a culture medium at a concentration of 1×10^4 cells/ml and infected with 500 TCID50 (50% cell culture infective dose)/well of HIV-1.

MT-4 cells = conditions: mock-infected MT-4 cells, MTT
Y181C HIV-1 mutant [1] = experiment: Antiviral activity against mutant HIV-1 (Y181C) by the MTT method; format: cell-based; conditions: read-out: EC50: Effective concentration for the inhibition of the proliferation of mutant HIV-1 by 50%; Y181C mutant HIV-1, MTT
Description: Antiviral activities of the inventive compounds were determined against Y181C which is representative HIV-1 mutant having high resistance against anti-HIV-1 nonnucleosides, e.g., Nevirapine, by the MTT method. MKC-442 was employed as a comparative compound.

Y181C HIV-1 mutant [2] = conditions: read-out: EC50: Effective concentration for the inhibition of the proliferation of mutant HIV-1 by 50%; Y181C mutant HIV-1; Reference: J. Med. Chem., 42, 4500 (1999); cited from earlier work

Structure (SMILES)	ED50: Effective concentration for the inhibition of the proliferation of HIV-1 by 50% (HIV-1)	CD50: Cytotoxic concentration that causes death of MT-4 cells by 50% (MT-4 cells)	EC50 (Y181C HIV-1 mutant [1])	S.I. Selectivity index (CD50/ED50) (HIV-1)	EC50 (Y181C HIV-1 mutant [2])
Cc1cc(C)cc(C(=O)c2c(C(C)C)c(=O)[nH]c(=O)n2Cc2ccncc2)c1 [Compound 1, 1-(4′-Picolyl)-5-isopropyl-6-(3′,5′-dimethylbenzoyl)-2,4-pyrimidinedione]	2.6 ng/mL	22.6 µg/mL	0.005 to 0.014 µM		
Cc1cc(C)cc(C(=O)c2c(C(C)C)c(=O)[nH]c(=O)n2Cc2cccnc2)c1 [Compound 2, 1-(3′-Picolyl)-5-isopropyl-6-(3′, 5′-dimethylbenzoyl)-2,4-pyrimidinedione]	3.6 ng/mL	27.2 µg/mL			
Cc1cc(C)cc(C(=O)c2c(C(C)C)c(=O)[nH]c(=O)n2Cc2ccccn2)c1 [Compound 3, 1-(2′-Picolyl)-5-isopropyl-6-(3′, 5′-dimethylbenzoyl)-2,4-pyrimidinedione]	5.5 ng/mL	26.1 µg/mL			
Cc1cc(Cl)cc(Cn2c(C(=O)c3cc(C)cc(C)c3)c(C(C)C)c(=O)[nH]c2=O)c1 [Compound 40]	34.8 ng/mL	7.97 µg/mL			
Cc1cc(C)cc(C(=O)c2c(C(C)C)c(=O)[nH]c(=O)n2Cc2cc(F)cc(F)c2)c1 [Compound 43]	3.5 ng/mL	7.16 µg/mL			
Cc1cc(C)cc(C(=O)c2c(C(C)C)c(=O)[nH]c(=O)n2Cc2cc(C(F)(F)F)cc(C(F)(F)F)c2)c1 [Compound 44]	1800 ng/mL	8.17 µg/mL			
Cc1cc(C)cc(Nc2c(C(C)C)c(=O)[nH]c(=O)n2Cc2ccncc2)c1 [Compound 66, 1-(4′-Picolyl)-5-isopropyl-6-(3′, 5′-dimethylphenylamino)-2,4-pyrimidinedione]	80 ng/mL	>100 µg/mL			
CCc1c(Nc2cc(C)cc(C)c2)n(Cc2ccncc2)c(=O)[nH]c1=O [Compound 67, 1-(4′-Picolyl)-5-ethyl-6-(3′, 5′-dimethylphenylamino)-2,4-pyrimidinedione]	420 ng/mL	54.5 µg/mL			
Cc1cc(C)cc(C(=O)c2c(C(C)C)c(=O)[nH]c(=O)n2Cc2cc[n+]([O-])cc2)c1 [Compound 68, 1-(N-oxo-4′-Picolyl)-5-isopropyl-6-(3′,5′-dimethylbenzoyl)-2,4-pyrimidinedione]	14.5 ng/mL	56.9 µg/mL			
Cc1cc(C)cc(C(=O)c2c(C(C)C)c(=O)[nH]c(=O)n2Cc2cc[n+]([O-])cc2C)c1 [Compound 69, 1-(N-oxo-3′-Methyl-4′-picolyl)-5-isopropyl-6-(3′, 5′-dimethylbenzoyl)-2,4-pyrimidinedione]	12.5 ng/mL	48.25 µg/mL			
Cc1cc(C)cc(C(=O)c2c(C(C)C)c(=O)[nH]c(=O)n2Cc2c(C)c[n+]([O-])cc2C)c1 [Compound 70, 1-(N-oxo-3′, 5-Dimethyl-4′-picolyl)-5-Isopropyl-6-(3′, 5′-dimethylbenzoyl)-2,4-Pyrimidinedione]	5.5 ng/mL	25.84 µg/mL			
Cc1cc(Cl)cc(C(=O)c2c(C(C)C)c(=O)[nH]c(=O)n2Cc2c(C)c[n+]([O-])cc2C)c1 [Compound 71, 1-(N-oxo-3′,5′-Dimethyl-4′-picolyl)-5-isopropyl-6-(3′,-chloro-5-methylbenzoyl)-2,4-pyrimidinedione]	8.2 ng/mL	25.44 µg/mL			
CC(=O)OCc1cnccc1Cn1c(C(=O)c2cc(C)cc(C)c2)c(C(C)C)c(=O)[nH]c1=O [Compound 72, 1-(3′-Acetoxymethyl-4′-picolyl)-5-Isopropyl-6-(3′,5′-dimethylbenzoyl)-2,4-pyrimidinedione]	8.8 ng/mL	38.49 µg/mL			
CC(=O)OCc1cncc(C)c1Cn1c(C(=O)c2cc(C)cc(C)c2)c(C(C)C)c(=O)[nH]c1=O [Compound 73, 1-(3′-Acetoxymethyl-5′-methyl-4′-picolyl)-5-isopropyl-6-(3′,5′-dimethylbenzoyl)-2,4-pyrimidinedione]	6.7 ng/mL	39.65 µg/mL			
Cc1cc(C)cc(C(=O)c2c(C(C)C)c(=O)[nH]c(=O)n2Cc2ccncc2CO)c1 [Compound 75, 1-(3′-Hydroxymethyl-4′-picolyl)-5-isopropyl-6-(3′,5′-dimethylbenzoyl)-2,4-pyrimidinedione]	3.1 ng/mL	42.06 µg/mL			
Cc1cc(C)cc(C(=O)c2c(C(C)C)c(=O)[nH]c(=O)n2Cc2c(C)cncc2CO)c1 [Compound 76, 1-(3′-Hydroxymethyl-5′-methyl-4′-picolyl)-5-isopropyl-6-(3′, 5′-dimethylbenzoyl)-2,4-pyrimidinedione]	8.4 ng/mL	38.39 µg/mL			
Cc1cc(Cl)cc(C(=O)c2c(C(C)C)c(=O)[nH]c(=O)n2Cc2c(C)cncc2CO)c1 [Compound 77, 1-(3′-Hydroxymethyl-5′-methyl-4′-picolyl)-5-isopropyl-6-(3′-chloro-5′-methylbenzoyl)-2,4-pyrimidinedione]	11.5 ng/mL	23.51 µg/mL			
COC(=O)c1cnccc1Cn1c(C(=O)c2cc(C)cc(C)c2)c(C(C)C)c(=O)[nH]c1=O [Compound 78, 1-(3′-Methoxycarbonyl-4′-picolyl)-5-isopropyl-6-(31,51-dimethylbenzoyl)-2,4-pyrimidinedione]	7.5 ng/mL	40.79 µg/mL			
Cc1cc(C)cc(C(=O)c2c(C(C)C)c(=O)[nH]c(=O)n2Cc2ccncc2C(N)=O)c1 [Compound 79, 1-(3′-Carbamoyl-4′-picolyl)-5-isopropyl-6-(3′,5′-dimethylbenzoyl)-2,4-pyrimidinedione]	9.1 ng/mL	>100 µg/mL			
Cc1cc(Cl)cc(C(=O)c2c(C(C)C)c(=O)[nH]c(=O)n2Cc2ccncc2C(N)=O)c1 [Compound 80, 1-(3′-Carbamoyl-4′-picolyl)-5-isopropyl-6-(3′-chloro-5′-methylbenzoyl)-2,4-pyrimidinedione]	11.1 ng/mL	27.83 µg/mL			
Cc1cc(C)cc(C(=O)c2c(C(C)C)c(=O)[nH]c(=O)n2Cc2ccc(N)cc2)c1 [Compound 81, 1-(4′-Aminobenzyl)-5-isopropyl-6-(3′,5′-dimethylbenzoyl)-2,4-pyrimidinedione]	15 ng/mL	9.63 µg/mL		648	
CCOCn1c(Cc2ccccc2)c(C(C)C)c(=O)[nH]c1=O [MKC-442, 6-benzyl-1-ethoxymethyl-5-isopropyluracil, reference compound]	5 ng/mL			5,544	13.4 µM
